Patent US11497726B2, “Topical therapy for the treatment of cervical intraepithelial neoplasia (CIN) and cervical cancer using nanoparticles of taxanes” (DFB SORIA, LLC, priority 2018, dated 2022)
Like-named read-outs stand apart in the source and are kept apart here.

Experiments:
high-grade CIN = conditions: cited from earlier work
Gottingen minipigs = test: Dermal toxicity study, 28 days, GLP; assay type: in vivo; conditions: topical, daily for 28 days
Procedure: The GLP-compliant study was conducted in Gottingen minipigs to characterize the toxicity of the formulations applied topically to 10% body surface area daily for 28 days. […] Reversibility of findings was also evaluated following a 2-week recovery period. Parameters evaluated included clinical observations, mortality and moribundity checks, dermal scoring, body weight, food consumption, eye examinations, test site photographs, electrocardiology, clinical pathology, bioanalysis and toxicokinetic evaluation, organ weights, macroscopic pathology and histopathology. There were no formulation-related effects on survival, clinical signs, dermal irritation, body weights, body weight gains, food consumption, ophthalmic findings, or cardiology parameters.

[1] = Specific surface area (SSA), BET isotherm; assay type: physicochemical
Procedure: (§1) As used herein, the “specific surface area (SSA)” is the total surface area of the taxane nanoparticle per unit of taxane mass as measured by the Brunauer-Emmett-Teller (“BET”) isotherm by the following method: a known mass between 200 and 300 mg of the analyte is added to a 30 mL sample tube. […] The automated test is then carried out using the BETWIN® software package and the surface area of each sample is subsequently calculated. The bulk density measurement can be conducted by pouring the taxane nanoparticles into a graduated cylinder without tapping at room temperature, measuring the mass and volume, and calculating the bulk density.

[2] = Particle size of paclitaxel nanoparticle lots (ACCUSIZER 780); assay type: physicochemical
Procedure: Instrument parameters: Max. Concentration: 9000 particles/mL, No. containers: 1, Sensor Range: Summation, Lower Detection Limit: 0.5 μm, Flow Rate: 30 mL/min, No. Analysis pulls: 4, Time between pulls: 1 sec, Pull volume: 10 mL, Tare Volume: 1 mL, Prime volume: 1 mL, Include First Pull: Not Selected.
Vortexed for 5-10 minutes and sonicated in a water batch for 1 minute.
Method: Filled a plastic bottle with filtered (0.22 μm) 0.1% w/w SDS solution and analyzed the Background.

[3] = Crystal growth of paclitaxel nanoparticles, visual observation by light microscopy; assay type: physicochemical
[4] = Bulk density (not tapped); assay type: physicochemical
Procedure: as §1

[5] = Solubility of paclitaxel in various solvents (HPLC); assay type: physicochemical
Method: Step “d” was continued for each vial for a total of 48 hours.

[6] = methanol/water 15/85 (v/v), 37° C., pH 7, 75 rpm, cited from earlier work
rabbit skin = conditions: Draize rabbit skin test model; cited from earlier work
[7] = summary statement on the cited study; cited from earlier work
[8] = lot used in formulas listed in Table 3
[9] = lot used in formulas listed in Tables 16-19

Compound: CC(C)Cn1cnc2c(N)nc3ccccc3c21 [Imiquimod]
- tolerability (high-grade CIN; despite frequent adverse effects such as vaginal discharge, vulvar pain, fever, headache, and fatigue): generally well-tolerated
- efficacy in the treatment of high-grade CIN (high-grade CIN; topically applied to the ectocervix): some efficacy

Compound: CC(=O)O[C@H]1C(=O)[C@@]2(C)[C@H]([C@H](OC(=O)c3ccccc3)[C@]3(O)C[C@H](OC(=O)[C@H](O)[C@@H](NC(=O)c4ccccc4)c4ccccc4)C(C)=C1C3(C)C)[C@]1(OC(C)=O)CO[C@@H]1C[C@@H]2O [Paclitaxel nanoparticles, paclitaxel]
- effect of the presence of the nanoparticles in the formulations on dermal irritation (Gottingen minipigs): negligible effect
- SSA [1, 8]: 41.24 m^2/g
- SSA [1, 9]: 26.72 m^2/g
- Particle size, Mean (number-weighted differential distribution) [2, 8]: 0.861 μm
- Particle size, Median (number-weighted differential distribution) [2, 8]: 0.710 μm
- Particle size, Mode (number-weighted differential distribution) [2, 8]: 0.572 μm
- Particle size, Mean (number-weighted differential distribution) [2, 9]: 0.83 μm
- Needle shaped crystals observed? (visual observation by light microscopy) ([3]; in Aluminum sulfate 0.1-0.2% in water, 7 days, RT): Yes, >5 μm, @
- Needle shaped crystals observed? (visual observation by light microscopy) ([3]; in Ammonium lauryl sulfate 2% in water, 3 days, RT): Yes, >5 μm @
- Needle shaped crystals observed? (visual observation by light microscopy) ([3]; in Benzalkonium chloride (50%) 2% in water, 7 days & 21 days, RT): No, <5 μm @
- Needle shaped crystals observed? (visual observation by light microscopy) ([3]; in CARBOPOL ULTREZ 10 (with Ammonium hydroxide as neutralizer) 0.5% in water, 8 days & 21 days, RT): No, <5 μm, @
- Needle shaped crystals observed? (visual observation by light microscopy) ([3]; in Castor Oil 100%, 24 hrs & 9 days, RT): No, <5 μm @
- Needle shaped crystals observed? (visual observation by light microscopy) ([3]; in Dimethicone, 1000 cSt 100%, 24 hrs & 6 days, RT): No, <5 μm @
- Needle shaped crystals observed? (visual observation by light microscopy) ([3]; in FOMBLIN HC04 100%, 4, 7 & 13 days, RT): No, <5 μm @
- Needle shaped crystals observed? (visual observation by light microscopy) ([3]; in Hydroxyethyl cellulose 1% in water, 7 days, RT): Yes, >5 μm, @
- Needle shaped crystals observed? (visual observation by light microscopy) ([3]; in Hydroxypropyl methylcellulose 1% in water, 3 days, RT): Yes, >5 μm @
- Needle shaped crystals observed? (visual observation by light microscopy) ([3]; in Lecithin 1% in water, 24 hrs, RT): Yes, >10 μm, @
- Needle shaped crystals observed? (visual observation by light microscopy) ([3]; in Light Mineral Oil NF 100%, 3 days, RT & 40 C.): No, <5 μm @
- Needle shaped crystals observed? (visual observation by light microscopy) ([3]; in Magnesium nitrate 5% in water, 3 days, RT): Yes, >5 μm @
- Needle shaped crystals observed? (visual observation by light microscopy) ([3]; in Mannitol 5% in water, 7 days, RT): Yes, >5 μm, @
- Needle shaped crystals observed? (visual observation by light microscopy) ([3]; in Mineral Oil USP (heavy) 100%, 3 days, RT & 40 C.): No, <5 μm @
- Needle shaped crystals observed? (visual observation by light microscopy) ([3]; in PEG 400 10% in water, 22 days, RT & 60 C.): Yes, >5 μm @
- Needle shaped crystals observed? (visual observation by light microscopy) ([3]; in Poloxamer 188 2% in water, 7 days, RT): Yes, >5 μm @
- Needle shaped crystals observed? (visual observation by light microscopy) ([3]; in Poloxamer 407 2% in water, 5 & 7 days, RT): No, <5 μm @
- Needle shaped crystals observed? (visual observation by light microscopy) ([3]; in Polyoxyl 40 Hydrogenated Castor Oil (KOLLIPHOR RH40) 1% in water, 6 days, RT): Yes, <5 μm @
- Needle shaped crystals observed? (visual observation by light microscopy) ([3]; in Polysorbate 80 0.5% in Saline, 7 days, RT & 60 C.): Yes, >5 μm @
- Needle shaped crystals observed? (visual observation by light microscopy) ([3]; in Polysorbate 80 0.5% in water, 22 days, RT & 60 C.): Yes, <5 μm @
- Needle shaped crystals observed? (visual observation by light microscopy) ([3]; in Povidone 1% in water, 7 days & 21 days, RT): Yes, <5 μm @
- Needle shaped crystals observed? (visual observation by light microscopy) ([3]; in Proline 3% in water, 7 days, RT): Yes, >5 μm, @
- Needle shaped crystals observed? (visual observation by light microscopy) ([3]; in Purified Water 100%, 5 days, RT & 60 C.): Yes, >5 μm, @
- Needle shaped crystals observed? (visual observation by light microscopy) ([3]; in ST-Cyclomethicone 5 NF 100%, 24 hrs & 13 days, RT): No, <5 μm @
- Needle shaped crystals observed? (visual observation by light microscopy) ([3]; in Saline 0.9% NaCl in water, 7 days, RT & 60 C.): Yes, >10 μm, @
- Needle shaped crystals observed? (visual observation by light microscopy) ([3]; in Sodium lauryl sulfate 2% in water, 7 days, RT): Yes, >5 μm, @
- Needle shaped crystals observed? (visual observation by light microscopy) ([3]; in Sodium phosphate monobasic 0.75% in water, 7 days, RT): Yes, >5 μm, @
- Needle shaped crystals observed? (visual observation by light microscopy) ([3]; in Sorbitol 5% in water, 7 days, RT): Yes, >5 μm, @
- Needle shaped crystals observed? (visual observation by light microscopy) ([3]; in Vitamin E TPGS 0.5% in water, 6 days, RT): Yes, <5 μm @
- Needle shaped crystals observed? (visual observation by light microscopy) ([3]; in Zinc acetate […] in water, 7 days, RT): Yes, >5 μm, @
- crystal growth ([3]; in any of the hydrophobic carriers of Table 2): did not grow
- crystal growth ([3]; in aqueous solutions of benzalkonium chloride, CARBOPOL ULTREZ 10, or poloxamer 407): did not grow
- bulk density (not-tapped) [4, 8]: 0.05 g/mL
- bulk density (not-tapped) [4, 9]: 0.09 g/mL

Compound: CC(=O)O[C@H]1C(=O)[C@@]2(C)[C@H]([C@H](OC(=O)c3ccccc3)[C@]3(O)C[C@H](OC(=O)[C@H](O)[C@@H](NC(=O)c4ccccc4)c4ccccc4)C(C)=C1C3(C)C)[C@]1(OC(C)=O)CO[C@@H]1C[C@@H]2O [Paclitaxel, paclitaxel]
- Paclitaxel Solubility at RT ([5]; in Benzyl Alcohol, NF): 17.02% w/w
- Paclitaxel Solubility at RT ([5]; in Diethylene Glycol Monoethyl Ether, NF (TRANSCUTOL P)): 33.10% w/w
- Paclitaxel Solubility at RT ([5]; in Diisopropyl Adipate (CERAPHYL 230)): 3.51% w/w
- Paclitaxel Solubility at RT ([5]; in Dimethyl Isosorbide): 38.22% w/w
- Paclitaxel Solubility at RT ([5]; in Hexylene Glycol): 4.07% w/w
- Paclitaxel Solubility at RT ([5]; in Isopropyl Myristate, NF): 0.048% w/w
- Paclitaxel Solubility at RT ([5]; in Medium Chain Triglycerides, NF): 0.32% w/w
- Paclitaxel Solubility at RT ([5]; in Mineral Oil, USP (heavy)): 0.3 ppm
- Paclitaxel Solubility at RT ([5]; in Polyethylene Glycol 400, NF): 22.30% w/w
- Paclitaxel Solubility at RT ([5]; in Propylene Carbonate): 4.74% w/w
- Paclitaxel Solubility at RT ([5]; in Propylene Glycol, USP): 0.88% w/w
- Paclitaxel Solubility at RT ([5]; in Super Refined Oleic Acid, NF): 0.041% w/w
- Paclitaxel Solubility at RT ([5]; in Super Refined Oleyl Alcohol, NF): 0.38% w/w
- solubility of paclitaxel in water ([5]; in water, method of Example 1): less than 0.05 ppm

Compound: CC(=O)O[C@@]12CO[C@@H]1C[C@H](O)[C@@]1(C)C(=O)[C@H](O)C3=C(C)[C@@H](OC(=O)[C@H](O)[C@@H](NC(=O)OC(C)(C)C)c4ccccc4)C[C@@](O)([C@@H](OC(=O)c4ccccc4)[C@H]21)C3(C)C [docetaxel nanoparticles, docetaxel]
- dissolution rate, % dissolved in 30 minutes ([6]; nanoparticles made by milling): 9%
- dissolution rate, % dissolved in 30 minutes ([6]; nanoparticles made by the supercritical carbon dioxide method): 27%

Compound: CCCCCCCCCCCCN1CCCCCC1=O [laurocapram, 1-Dodecyl azacycloheptan-2-one]
- local skin irritation (rabbit skin): edema and erythema have been observed

Compound: Cyclomethicone
- irritation to vaginal tissues [7]: non-irritating
